{
  "source": "patent US20020106348A1",
  "about": "“Cancer therapeutics involving the administration of 2-methoxyestradiol and an agent that increases intracellular superoxide anion” (priority 2000, published 2002)",
  "key": {"bovine CuZnSOD": {"target": "T1, bovine CuZnSOD (Bos taurus, UniProt P00442)", "T1 construct": "purchased Boehringer Mannheim", "T1 sequence (P00442 whole entry)": "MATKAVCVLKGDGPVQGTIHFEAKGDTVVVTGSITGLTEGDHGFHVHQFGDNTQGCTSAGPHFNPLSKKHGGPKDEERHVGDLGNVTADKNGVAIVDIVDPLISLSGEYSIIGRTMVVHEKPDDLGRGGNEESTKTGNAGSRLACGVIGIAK", "assay": "In vitro SOD activity assay, bovine CuZnSOD", "format": "biochemical", "settings": "purified enzyme; read-out: IC50, inhibition of bovine CuZnSOD", "procedure": "A spectrophotometric assay was used to determine the effect of 2-methoxyestradiol (2-ME) on SOD activity in vitro with purified enzymes (bovine CuZnSOD from Boehringer Mannheim; human CuZnSOD and E. coli MnSOD from Sigma). The reactions contained 2.5 ml of 50 mM Na2CO3, 0.1 ml of 3 mM xanthine, 0.1 ml of 3 mM EDTA, and 0.1 ml of 0.8 mM XTT (3′-(1-[phenylamino-carbonyl]3,4-tetrazolium)-bis(4-methoxy-6-nitro)benzene-sulfonic acid hydrate), and the indicated concentrations of SOD and 2-ME. Xanthine oxidase (0.1 ml, 64 mU/ml) was added to start the reaction. After incubation at 24° C. for 30 min, the absorbance at 470 nm was measured. The relative activity (RA) of SOD was calculated by the following formula: […]\nwhere a is the absorbance of reaction without SOD, b is the absorbance of reaction with SOD but without 2-ME, c is the absorbance of reaction with SOD in the presence of 2-ME. All values were subtracted by the background reading of the blank. In separate experiments using nitro blue tetrazolium or cytochrome c as substrates for SOD assay, 2-ME and DMSO (as a solvent for 2-ME) interfered with the calorimetric reaction. These artifacts preclude the use of NBT or cytochrome c as the substrates for measuring the effect of 2-ME on SOD activity. Neither 2-ME nor DMSO affect the calorimetric reaction of XTT."}, "HL-60 [1]": {"test_system": "HL-60", "assay": "H2O2 generation in cell culture, HL-60 cells", "format": "cell-based, human"}, "ML-1 cells": {"test_system": "ML-1 cells", "assay": "Cellular O2^- by hydroethidine flow cytometry, ML-1 cells", "format": "cell-based, human", "settings": "ML-1, 1 μM, 5 h; control 4.3"}, "CuZnSOD": {"test_system": "CuZnSOD", "assay": "Inhibition of CuZnSOD by estrogen derivatives", "format": "biochemical", "settings": "FIG. 20"}, "AML cells": {"test_system": "AML cells", "assay": "MTT assay, primary AML cells", "format": "cell-based, human", "settings": "30 μM, 6 patients"}, "PHA-treated lymphocytes": {"test_system": "PHA-treated lymphocytes", "assay": "MTT assay, PHA-stimulated lymphocytes", "format": "cell-based, human", "settings": "3-day drug incubation"}, "HL-60 cells": {"test_system": "HL-60 cells", "assay": "Cellular O2^- by flow cytometry, HL-60 cells", "format": "cell-based, human", "settings": "0.25 μM"}, "CML cells": {"test_system": "CML cells", "assay": "MTT assay, primary CML cells", "format": "cell-based, human", "settings": "30 μM, 3 patients"}, "HL-60 [2]": {"test_system": "HL-60", "assay": "Release of cytochrome c to cytosol", "format": "cell-based, human"}, "[3]": {"test_system": "bovine alkaline phosphatase", "assay": "Effect on alkaline phosphatase (removal of 5'-phosphate from [14C]GMP)", "format": "biochemical", "settings": "1-100 μM"}},
  "data": [
    {"smiles": "COc1cc2c(cc1O)CC[C@@H]1[C@@H]2CC[C@]2(C)[C@@H](O)CC[C@@H]12", "note": "[2-ME, 1,3,5(10)-estratrien-2,3,17b-triol 2 methylether]", "values": [
      {"measurement": "IC50", "setting": "bovine CuZnSOD", "result": "~20", "unit": "µM"},
      {"measurement": "H2O2 production", "setting": "HL-60 [1]", "result": "concentration-dependent decrease of H2O2"},
      {"measurement": "cellular O2^− content", "setting": "ML-1 cells", "result": 6.3, "unit": "arbitrary units"},
      {"measurement": "inhibition of SOD activity", "setting": "CuZnSOD", "result": "substantially inhibited SOD activity"},
      {"measurement": "cell survival", "setting": "AML cells", "result": 49.6, "unit": "%"},
      {"measurement": "viability of PHA-treated lymphocytes", "setting": "PHA-treated lymphocytes", "result": "remained viable"},
      {"measurement": "proliferation of PHA-treated lymphocytes", "setting": "PHA-treated lymphocytes; MTT, PHA 5 μg/ml", "result": "inhibited the proliferation"},
      {"measurement": "cellular O2^− content", "setting": "HL-60 cells", "result": "increase of cellular O2^−"},
      {"measurement": "cell survival", "setting": "CML cells", "result": 54.7, "unit": "%"},
      {"measurement": "cytosolic cytochrome c", "setting": "HL-60 [2]; at 12 and 14 h", "result": "significant amounts of cytosolic cytochrome c were detected"},
      {"measurement": "cytosolic cytochrome c", "setting": "HL-60 [2]; during the first 10 h", "result": "no cytochrome c was present in cytosol"},
      {"measurement": "effect on alkaline phosphatase", "setting": "[3]", "result": "little effect"}
    ]}
  ]
}
